Data on one substance can be found in US9381257B2, “Triarylmethyl radicals” (BRACCO IMAGING S.P.A., priority 2012, dated 2016).

Series [1] is described as follows: DNP polarization build-up and dissolution of ethylacetoacetate with the radical as polarizing agent. Particulars: 18 mM radical in 15-Crown-5 / 1,3-13C2 ethylacetoacetate; DNP at 1.2 K, 3.35 T, microwave irradiation. The method, then: Radical 1 (1.50 mg, 1.4 μmol) was dissolved in 15-Crown-5 (60.5 μl, 67.2 mg) to make a 24 mM solution. To 30 μl (33.7 mg) of this solution was added 1,3-^13C2 ethylacetoacetate (10.5 mg, 79 μmol, 158 μmol ^13C). The radical 1 concentration in the mixture was 18 mM.
43 mg of the composition prepared above were transferred from the Eppendorf tube to a sample cup and the sample cup was inserted into a DNP polarizer. The composition was polarised under DNP conditions at 1.2 K in a 3.35 T magnetic field under irradiation with microwave (93.900 GHz). The calculated solid-state polarization was 17% and the polarization build-up constant was 900 s.
The sample was dissolved in 6 ml 40 mM phosphate buffer pH 7.3+100 mg/l EDTA. A time series of 1D 13C-NMR spectra were recorded with a total delay between the pulses of 3 s. The liquid state polarization was 14% after 12 s transfer time. The pH was 7.3 in the dissolved sample. […]
43 mg of the composition prepared above were transferred from the Eppendorf tube to a sample cup and the sample cup was inserted into a DNP polarizer. […] The calculated solid-state polarization was 18% and the polarization build-up constant was 1700 s.
The sample was dissolved in 6 ml 40 mM phosphate buffer pH 7.3+100 mg/l EDTA. A time series of 1D 13C-NMR spectra were recorded with a total delay between the pulses of 3 s. […]

Series [2] can be described thus: Precipitation of the radical on aqueous dissolution and removal by mechanical filtration (UV-Vis check of filtrate). It counts as physicochemical. The method, then: The sample was dissolved in 6 ml 40 mM phosphate buffer pH 7.3+100 mg/l EDTA. A time series of 1D 13C-NMR spectra were recorded with a total delay between the pulses of 3 s. The liquid state polarization was 14% after 12 s transfer time. The pH was 7.3 in the dissolved sample.
The sample was dissolved in 6 ml 40 mM phosphate buffer pH 7.3+100 mg/l EDTA. A time series of 1D 13C-NMR spectra were recorded with a total delay between the pulses of 3 s. The liquid state polarization was 15% after 12 s transfer time. The pH was 7.3 in the dissolved sample. The sample was filtered through a syringe filter (Acrodisk 25 mm PVDF filter, 0.45 μm pore size). Filtration of the full volume was completed in <3 s. […] Since the high extinction coefficients of the trityl radicals allow reliable determination of concentration down to approximately 1-1.5 μM, the concentration in the filtrate was below these values. The radical was removed to >99%.

Substance “tris{8-carboxyl-2,2,6,6-tetramethyl-benzo(1,2-d:4,5-dS)bis(1,3)dithiole-4-yl}methyl sodium salt [Radical 1, reference compound]” displayed a polarization build-up constant in series [1] of 900 s. For the same substance, the “removal of the radical by mechanical filtration” value in series [2] (after water dissolution) is “cannot be removed by mechanical filtration”. Moreover, the “precipitation of the radical in water dissolution” value in series [2] (dissolved in 6 ml 40 mM phosphate buffer pH 7.3 + 100 mg/l EDTA) is recorded as “does not precipitate”.
